Experiments:
Set-up in all cases: scale not given: the % may be the effect or the level left
[1] = molecular target: Serine/threonine-protein kinase pim-3 (Homo sapiens) (UniProt Q86V86); assay: Inhibition of human PIM3 assessed as enzyme activity at 1 uM using RSRHSSYPAGT as substrate preincubated for 20 mins followed by [gamma-33P]-ATP addition and measured after 120 mins by radiometric Hot-SpotSM Kinase assay relative to control
[2] = molecular target: Serine/threonine-protein kinase/endoribonuclease IRE2 (Homo sapiens) (UniProt Q76MJ5); assay: Inhibition of human ERN2/IRE2 assessed as enzyme activity at 1 uM using myelin basic protein as substrate preincubated for 20 mins followed by [gamma-33P]-ATP addition and measured after 120 mins by radiometric Hot-SpotSM Kinase assay relative to control
Chain of Serine/threonine-protein kinase/endoribonuclease IRE2 (Homo sapiens) (Q76MJ5 35-926 limits assumed): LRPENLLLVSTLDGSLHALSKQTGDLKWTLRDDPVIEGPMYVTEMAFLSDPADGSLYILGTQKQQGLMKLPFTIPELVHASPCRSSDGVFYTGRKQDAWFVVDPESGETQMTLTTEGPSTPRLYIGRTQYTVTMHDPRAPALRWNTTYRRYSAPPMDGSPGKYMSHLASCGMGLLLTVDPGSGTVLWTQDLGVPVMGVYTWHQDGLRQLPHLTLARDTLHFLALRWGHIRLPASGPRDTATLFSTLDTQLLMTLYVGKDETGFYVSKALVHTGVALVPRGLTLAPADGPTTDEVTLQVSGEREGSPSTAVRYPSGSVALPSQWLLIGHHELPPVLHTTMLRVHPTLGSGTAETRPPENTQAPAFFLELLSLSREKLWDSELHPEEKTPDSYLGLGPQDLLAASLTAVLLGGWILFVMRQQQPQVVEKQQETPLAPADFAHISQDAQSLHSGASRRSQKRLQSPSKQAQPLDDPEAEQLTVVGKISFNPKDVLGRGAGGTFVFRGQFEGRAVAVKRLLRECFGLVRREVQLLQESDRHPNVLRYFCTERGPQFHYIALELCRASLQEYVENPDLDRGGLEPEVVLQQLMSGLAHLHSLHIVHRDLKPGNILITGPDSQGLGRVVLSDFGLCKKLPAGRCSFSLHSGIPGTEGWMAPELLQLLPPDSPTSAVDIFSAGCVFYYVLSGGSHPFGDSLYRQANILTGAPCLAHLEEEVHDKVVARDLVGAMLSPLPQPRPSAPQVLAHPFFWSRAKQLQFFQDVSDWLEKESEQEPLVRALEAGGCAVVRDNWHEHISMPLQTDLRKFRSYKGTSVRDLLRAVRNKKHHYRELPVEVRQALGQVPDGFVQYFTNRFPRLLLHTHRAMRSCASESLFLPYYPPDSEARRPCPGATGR

[3] = molecular target: T1, Serine/threonine-protein kinase Nek1 (Homo sapiens) (UniProt Q96PY6); assay: Inhibition of human NEK1 assessed as enzyme activity at 1 uM using myelin basic protein as substrate preincubated for 20 mins followed by [gamma-33P]-ATP addition and measured after 120 mins by radiometric Hot-SpotSM Kinase assay relative to control
T1 sequence (whole entry): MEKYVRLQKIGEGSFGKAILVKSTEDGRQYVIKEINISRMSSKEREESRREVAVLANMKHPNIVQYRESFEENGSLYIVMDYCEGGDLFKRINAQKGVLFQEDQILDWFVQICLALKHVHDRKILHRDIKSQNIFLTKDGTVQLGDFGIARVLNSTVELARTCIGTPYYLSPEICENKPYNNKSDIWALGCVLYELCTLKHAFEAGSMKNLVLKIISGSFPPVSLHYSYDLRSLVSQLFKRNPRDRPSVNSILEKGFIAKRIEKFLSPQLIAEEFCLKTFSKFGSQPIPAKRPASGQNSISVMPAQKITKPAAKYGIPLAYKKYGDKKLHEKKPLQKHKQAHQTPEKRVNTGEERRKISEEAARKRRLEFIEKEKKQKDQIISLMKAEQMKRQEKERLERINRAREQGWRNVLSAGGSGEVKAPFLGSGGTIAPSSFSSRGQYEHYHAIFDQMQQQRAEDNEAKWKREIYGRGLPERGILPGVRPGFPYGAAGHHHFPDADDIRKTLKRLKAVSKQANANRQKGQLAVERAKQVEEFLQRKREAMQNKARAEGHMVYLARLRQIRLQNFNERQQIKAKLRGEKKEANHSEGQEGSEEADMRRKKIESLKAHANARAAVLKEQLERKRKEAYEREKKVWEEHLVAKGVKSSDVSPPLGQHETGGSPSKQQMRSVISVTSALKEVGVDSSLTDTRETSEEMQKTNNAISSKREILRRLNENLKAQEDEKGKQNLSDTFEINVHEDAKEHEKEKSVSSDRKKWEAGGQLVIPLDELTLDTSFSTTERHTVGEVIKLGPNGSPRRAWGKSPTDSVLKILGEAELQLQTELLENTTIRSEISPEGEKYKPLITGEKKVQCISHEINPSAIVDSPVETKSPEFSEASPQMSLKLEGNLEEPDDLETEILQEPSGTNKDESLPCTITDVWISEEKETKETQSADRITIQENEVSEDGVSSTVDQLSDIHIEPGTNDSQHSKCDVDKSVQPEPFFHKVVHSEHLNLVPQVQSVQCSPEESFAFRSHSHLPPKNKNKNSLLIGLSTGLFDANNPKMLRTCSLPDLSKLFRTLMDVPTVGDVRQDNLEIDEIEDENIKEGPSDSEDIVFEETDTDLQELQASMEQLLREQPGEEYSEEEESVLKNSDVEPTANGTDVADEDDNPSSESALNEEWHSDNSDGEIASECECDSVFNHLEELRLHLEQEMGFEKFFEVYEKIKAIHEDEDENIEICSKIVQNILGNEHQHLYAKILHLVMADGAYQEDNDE

[4] = molecular target: Mitogen-activated protein kinase kinase kinase kinase 4 (Homo sapiens) (UniProt O95819); assay: Inhibition of human HGK assessed as enzyme activity at 1 uM using myelin basic protein as substrate preincubated for 20 mins followed by [gamma-33P]-ATP addition and measured after 120 mins by radiometric Hot-SpotSM Kinase assay relative to control
Chain of Mitogen-activated protein kinase kinase kinase kinase 4 (Homo sapiens) (O95819 2-1239 limits assumed): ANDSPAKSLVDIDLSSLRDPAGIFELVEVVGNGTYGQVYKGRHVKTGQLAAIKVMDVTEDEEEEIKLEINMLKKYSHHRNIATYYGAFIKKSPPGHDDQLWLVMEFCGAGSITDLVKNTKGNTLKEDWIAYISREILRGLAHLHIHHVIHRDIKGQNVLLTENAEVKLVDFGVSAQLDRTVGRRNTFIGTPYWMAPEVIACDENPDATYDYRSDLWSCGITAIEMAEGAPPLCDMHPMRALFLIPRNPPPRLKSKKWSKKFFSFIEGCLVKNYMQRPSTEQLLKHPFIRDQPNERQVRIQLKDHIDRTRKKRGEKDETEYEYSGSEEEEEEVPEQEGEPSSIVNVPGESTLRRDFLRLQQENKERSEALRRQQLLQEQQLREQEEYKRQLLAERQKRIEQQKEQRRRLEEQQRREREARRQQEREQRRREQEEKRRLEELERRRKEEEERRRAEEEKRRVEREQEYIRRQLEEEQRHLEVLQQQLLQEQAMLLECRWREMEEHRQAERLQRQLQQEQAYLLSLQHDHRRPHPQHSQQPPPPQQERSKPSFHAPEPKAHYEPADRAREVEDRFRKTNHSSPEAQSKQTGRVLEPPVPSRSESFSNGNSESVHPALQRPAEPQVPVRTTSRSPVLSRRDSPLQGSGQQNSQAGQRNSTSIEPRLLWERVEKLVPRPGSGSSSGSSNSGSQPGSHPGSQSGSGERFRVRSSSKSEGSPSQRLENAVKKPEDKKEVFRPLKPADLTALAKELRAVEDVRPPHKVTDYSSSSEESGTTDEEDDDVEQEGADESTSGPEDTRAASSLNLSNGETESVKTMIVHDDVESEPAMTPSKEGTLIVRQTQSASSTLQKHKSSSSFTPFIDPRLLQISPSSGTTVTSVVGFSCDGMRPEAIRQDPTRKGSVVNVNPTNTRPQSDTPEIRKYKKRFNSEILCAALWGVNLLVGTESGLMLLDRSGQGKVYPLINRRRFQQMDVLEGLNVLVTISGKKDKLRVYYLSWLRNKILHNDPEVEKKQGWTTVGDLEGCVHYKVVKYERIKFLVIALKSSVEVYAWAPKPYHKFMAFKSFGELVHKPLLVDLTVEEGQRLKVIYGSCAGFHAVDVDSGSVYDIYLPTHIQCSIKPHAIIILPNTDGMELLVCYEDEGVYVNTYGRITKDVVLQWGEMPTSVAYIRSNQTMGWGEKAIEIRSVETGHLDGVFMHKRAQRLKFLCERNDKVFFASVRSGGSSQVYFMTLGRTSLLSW

[5] = molecular target: T2, Serine/threonine-protein kinase D1 (Homo sapiens) (UniProt Q15139); assay: Inhibition of human PKCmu assessed as enzyme activity at 1 uM using KKLNRTLSVA as substrate preincubated for 20 mins followed by [gamma-33P]-ATP addition and measured after 120 mins by radiometric Hot-SpotSM Kinase assay relative to control
T2 sequence (whole entry): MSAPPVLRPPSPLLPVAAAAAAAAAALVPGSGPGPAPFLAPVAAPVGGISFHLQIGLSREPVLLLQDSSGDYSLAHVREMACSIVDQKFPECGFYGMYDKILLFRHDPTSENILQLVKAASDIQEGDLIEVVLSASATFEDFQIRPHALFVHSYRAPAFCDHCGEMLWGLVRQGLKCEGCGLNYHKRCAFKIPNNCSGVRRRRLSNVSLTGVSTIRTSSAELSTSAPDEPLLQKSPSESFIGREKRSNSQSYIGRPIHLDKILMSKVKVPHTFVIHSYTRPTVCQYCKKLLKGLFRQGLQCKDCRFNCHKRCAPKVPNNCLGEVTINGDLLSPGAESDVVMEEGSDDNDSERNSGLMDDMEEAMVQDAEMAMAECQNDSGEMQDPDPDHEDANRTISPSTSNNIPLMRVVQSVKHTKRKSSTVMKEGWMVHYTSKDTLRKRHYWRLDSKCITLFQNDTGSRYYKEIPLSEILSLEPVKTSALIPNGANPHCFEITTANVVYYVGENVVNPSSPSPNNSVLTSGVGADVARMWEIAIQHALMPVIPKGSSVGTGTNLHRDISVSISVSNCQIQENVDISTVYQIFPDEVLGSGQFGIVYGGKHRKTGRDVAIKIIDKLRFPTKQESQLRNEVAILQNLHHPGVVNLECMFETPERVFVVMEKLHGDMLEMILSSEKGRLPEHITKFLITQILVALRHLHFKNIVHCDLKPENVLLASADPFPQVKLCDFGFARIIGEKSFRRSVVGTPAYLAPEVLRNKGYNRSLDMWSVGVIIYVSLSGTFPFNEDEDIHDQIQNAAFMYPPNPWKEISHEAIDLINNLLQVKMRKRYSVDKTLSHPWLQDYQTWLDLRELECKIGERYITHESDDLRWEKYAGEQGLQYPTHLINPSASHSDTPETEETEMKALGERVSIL

SMILES | Activity [1] [%] | Activity [2] [%] | Activity [3] [%] | Activity [4] [%] | Activity [5] [%]
CC[C@H](Nc1ncnc2[nH]cnc12)c1nc2cccc(F)c2c(=O)n1-c1ccccc1 | 104 | 100 | 93.5 | 93 | 92.3
C[C@H](Nc1ncnc2nc[nH]c12)c1cc2cccc(Cl)c2c(=O)n1-c1ccccc1 | 95.4 | 96.5 | 87 | 97.1 | 96.1
CC(C)Oc1ccc(-c2nn([C@@H](C)c3oc4ccc(F)cc4c(=O)c3-c3cccc(F)c3)c3ncnc(N)c23)cc1F [UMBRALISIB] | 102 | 98.3 | 105 | 97.1 | 92.7
